Common to all, as to assay: MIC by broth dilution method (Table 4)
Holding throughout (type): cell-based
Common to all, as to set-up: unit not given here
For orientation: Broth dilution looks for growth in wells or tubes with falling amounts of substance.

One experiment relates to S. aureus RN4250. Particulars: S. aureus RN4250 Tc^r; 18 hours. Here is the method: (§1) The minimum inhibitory concentration, the lowest concentration of drug that inhibits bacterial growth at 18 hours at their appropriate temperature, is determined by the broth dilution method using L-broth or Muller-Hinton broth. The Muller-Hinton broth was cation-adjusted accordingly and all bacteriological methods were performed as was described by Waitz, J. A., National Commision for Clinical Laboratory Standards Document M7-A2, vol.10, no. 8, pp.13-20, 2nd edition, Villanova, Pa. (1990). The organisms tested represent gram-positive and gram-negative bacterial species that are susceptible to tetracyclines or are resistant to tetracyclines due to the ability to efflux tetracyclines or which confer resistance by ribosomal protection mechanisms. The clinical strains used are either susceptible to tetracyclines or are resistant to them by either drug efflux or ribosomal protection.

A further experiment concerns E. faecalis ATCC9790. Particulars: E. faecalis Tc^r ATCC9790; 18 hours. Here is the method:
as §1

The test system of a further experiment is S. aureus MRSA5. Particulars: S. aureus MRSA5 Tc^r; 18 hours. How it is done: as §1
In a further experiment the test system is S. aureus ATCC12715. The note with it: S. aureus Tc^r ATCC12715; 18 hours. Here is the method:
as §1

Another experiment relates to S. aureus RN450. Particulars: S. aureus RN450 Tc^s; 18 hours. How it is done:
as §1

A further experiment has as its system E. faecalis pMV158. The note with it: E. faecalis pMV158 Tc^r; 18 hours. Here is the method: as §1
For another experiment, the system named is E. coli D31m4(pHCM1). The note with it: E. coli D31m4(pHCM1) Tcr; 18 hours. Here is the method:
as §1

For another experiment, the system named is E. faecalis pAM211. The note with it: E. faecalis pAM211 Tc^r; 18 hours. Here is the method:
as §1

For the next experiment, the system named is E. coli D31m4. Particulars: E. coli D31m4* Tc^r, lipopolysaccharide-deficient mutant; 18 hours. Here is the method:
as §1

On to `CC1c2ccc(C(C)(C)C)c(O)c2C(=O)C2=C(O)[C@]3(O)C(=O)C(C(N)=O)=C(O)[C@@H](N(C)C)C3C(O)C21` (stereo partly drawn) [A, [4S-(4alpha,12aalpha)]-9-(tert-butyl)-4-(dimethylamino)-1,4,4a,5,5a,6,11,12a-octahydro-3,5,10,12,12a-pentahydroxy-6-methyl-1,11-dioxo-2-naphthacenecarboxamide], for which the “Antibacterial activity (minimum inhibitory concentration)” value in the experiment with S. aureus RN4250 came out at 1.56; in the experiment on E. faecalis ATCC9790, 1.56; with S. aureus MRSA5 it was 3.12; with S. aureus ATCC12715 it was 3.12; with S. aureus RN450 it was 0.78.
`CCC(=O)OC1C2C(=C(O)C3(O)C(=O)C(C(N)=O)=C(O)C(N(C)C)C13)C(=O)c1c(ccc(C(C)(C)C)c1O)C2C` (stereo not drawn) [B, [4S-(4alpha,12aalpha)]-9-(tert-butyl)-4-(dimethylamino)-5-propionylcarbonyloxy-1,4,4a,5,5a,6,11,12a-octahydro-3,10,12,12a-tetrahydroxy-6-methyl-1,11-dioxo-2-naphthacenecarboxamide]: the “Antibacterial activity (minimum inhibitory concentration)” value stood at 0.78 in the experiment with S. aureus RN4250; 1.56 with E. faecalis ATCC9790; 0.39 with E. faecalis pMV158; 3.12 in the experiment on S. aureus MRSA5; 6.25 with E. coli D31m4(pHCM1); 1.56 with S. aureus ATCC12715. For the same compound, the “Antibacterial activity (minimum inhibitory concentration)” value in the experiment on E. faecalis pAM211 was 0.78; in the experiment on S. aureus RN450, 0.39; with E. coli D31m4 it was 6.25.
As to `CC(=O)OC1C2C(=C(O)C3(O)C(=O)C(C(N)=O)=C(O)C(N(C)C)C13)C(=O)c1c(ccc(C(C)(C)C)c1O)C2C` (stereo not drawn) [C, [4S-(4alpha,12aalpha)]-9-(tert-butyl)-4-(dimethylamino)-5-acetylcarbonyloxy-1,4,4a,5,5a,6,11,12a-octahydro-3,10,12,12a-tetrahydroxy-6-methyl-1,11-dioxo-2-naphthacenecarboxamide], the “Antibacterial activity (minimum inhibitory concentration)” value is recorded as 0.39 in the experiment with S. aureus RN4250; 0.78 with E. faecalis ATCC9790; 0.39 in the experiment on E. faecalis pMV158; 1.56 with S. aureus MRSA5; 3.12 in the experiment on E. coli D31m4(pHCM1); 0.78 in the experiment on S. aureus ATCC12715. In addition, the “Antibacterial activity (minimum inhibitory concentration)” value in the experiment with E. faecalis pAM211 came out at 0.78; in the experiment on S. aureus RN450 it was 0.39; with E. coli D31m4 it was 3.12.
Turning to `CC(=O)OC(CCC(C)C)c1ccc2c(c1O)C(=O)C1=C(O)C3(O)C(=O)C(C(N)=O)=C(O)C(N(C)C)C3C(O)C1C2C` (stereo not drawn) [Compound N, [4S-(4alpha,12aalpha)]-9-[4′-(1′-acetoxy-4′-methyl)pentyl]-4-(dimethylamino)-1,4,4a,5,5a,6,11,12a-octahydro-3,5,10,12,12a-pentahydroxy-6-methyl-1,11-dioxo-2-naphthacenecarboxamide], the “Antibacterial activity (minimum inhibitory concentration)” value turned out to be 1.56 in the experiment on S. aureus RN4250; 1.56 with E. faecalis ATCC9790; 0.78 in the experiment on E. faecalis pMV158; 1.56 in the experiment on S. aureus MRSA5; 3.12 in the experiment on E. coli D31m4(pHCM1); 1.56 with S. aureus ATCC12715. The “Antibacterial activity (minimum inhibitory concentration)” value is recorded as 1.56 in the experiment on E. faecalis pAM211, 1.56 with S. aureus RN450 and 3.12 with E. coli D31m4.
`CC1c2ccc(C(C)(C)C)c(O)c2C(=O)C2=C(O)[C@]3(O)C(=O)C(C(N)=O)=C(O)[C@@H](N(C)C)C3C(OC(=O)C3CCC3)C21` (stereo partly drawn) [D, [4S-(4alpha,12aalpha)]-9-(tert-butyl)-4-(dimethylamino)-5-cyclobutylcarbonyloxy-1,4,4a,5,5a,6,11,12a-octahydro-3,10,12,12a-tetrahydroxy-6-methyl-1,11-dioxo-2-naphthacenecarboxamide]: the “Antibacterial activity (minimum inhibitory concentration)” value in the experiment with S. aureus RN4250 was 3.12; in the experiment with E. faecalis ATCC9790, 0.78; with E. faecalis pMV158, 50; in the experiment on S. aureus MRSA5, 1.56; in the experiment on E. coli D31m4(pHCM1), 50; in the experiment on S. aureus ATCC12715, 3.12. The “Antibacterial activity (minimum inhibitory concentration)” value with S. aureus RN450 is given as 0.78; with E. coli D31m4, 50.
Turning to `CC1c2ccc(C3(C)CCCCC3)c(O)c2C(=O)C2=C(O)[C@]3(O)C(=O)C(C(N)=O)=C(O)[C@@H](N(C)C)C3C(O)C21` (stereo partly drawn) [E, [4S-(4alpha,12aalpha)]-9-[1′-(1′-methyl)cyclohexyl]-4-(dimethylamino)-1,4,4a,5,5a,6,11,12a-octahydro-3,5,10,12,12a-pentahydroxy-6-methyl-1,11-dioxo-2-naphthacenecarboxamide], the “Antibacterial activity (minimum inhibitory concentration)” value with S. aureus RN4250 was determined as 6.25; with E. faecalis ATCC9790 it was 0.39; in the experiment with S. aureus MRSA5 it was 6.25; in the experiment with E. coli D31m4(pHCM1) it was 25; in the experiment with S. aureus ATCC12715, 6.25; with S. aureus RN450, 1.56. The “Antibacterial activity (minimum inhibitory concentration)” value with E. coli D31m4 stood at 25.
In the case of `CC1c2ccc(C3(C)CCCC3)c(O)c2C(=O)C2=C(O)C3(O)C(=O)C(C(N)=O)=C(O)C(N(C)C)C3C(O)C21` (stereo not drawn) [F, [4S-(4alpha,12aalpha)]-9-[1′-(1′-methyl)cyclopentyl]-4-(dimethylamino)-1,4,4a,5,5a,6,11,12a-octahydro-3,5,10,12,12a-pentahydroxy-6-methyl-1,11-dioxo-2-naphthacenecarboxamide], the “Antibacterial activity (minimum inhibitory concentration)” value in the experiment with S. aureus RN4250 was determined as 0.39; in the experiment on E. faecalis ATCC9790, 0.78; in the experiment on E. faecalis pMV158, 0.08; in the experiment on S. aureus MRSA5, 0.08; with E. coli D31m4(pHCM1), 1.56; in the experiment on S. aureus ATCC12715, 0.78. The “Antibacterial activity (minimum inhibitory concentration)” value came to 0.39 with E. faecalis pAM211, 0.39 with S. aureus RN450 and 0.78 in the experiment on E. coli D31m4.
Turning to `CC1c2ccc(C3(C)CCC3)c(O)c2C(=O)C2=C(O)[C@]3(O)C(=O)C(C(N)=O)=C(O)[C@@H](N(C)C)C3C(O)C21` (stereo partly drawn) [G, [4S-(4alpha,12aalpha)]-9-[1′-(1′-methyl)cyclobutyl]-4-(dimethylamino)-1,4,4a,5,5a,6,11,12a-octahydro-3,5,10,12,12a-pentahydroxy-6-methyl-1,11-dioxo-2-naphthacenecarboxamide], the “Antibacterial activity (minimum inhibitory concentration)” value in the experiment on S. aureus RN4250 turned out to be 3.12; in the experiment with E. faecalis ATCC9790, 0.78; in the experiment on S. aureus MRSA5, 0.08; in the experiment with E. coli D31m4(pHCM1), 6.25; in the experiment with S. aureus ATCC12715 it was 3.12; with S. aureus RN450 it was 1.56. Besides, the “Antibacterial activity (minimum inhibitory concentration)” value in the experiment on E. coli D31m4 was found to be 6.25.
Consider `CC1c2ccc(C(C)(C)CCCC#N)c(O)c2C(=O)C2=C(O)C3(O)C(=O)C(C(N)=O)=C(O)C(N(C)C)C3C(O)C21` (stereo not drawn) [L, [4S-(4alpha,12aalpha)]-9-[4′-(1′-cyano-4′-methyl)pentyl]-4-(dimethylamino)-1,4,4a,5,5a,6,11,12a-octahydro-3,5,10,12,12a-pentahydroxy-6-methyl-1,11-dioxo-2-naphthacenecarboxamide], for which the “Antibacterial activity (minimum inhibitory concentration)” value in the experiment on S. aureus RN4250 came out at 3.12; with E. faecalis ATCC9790, 3.12; in the experiment on S. aureus MRSA5, 6.25; in the experiment with S. aureus ATCC12715, 6.25; with S. aureus RN450, 1.56.
`CC1c2ccc(C(C)(C)CCC[N+](=O)[O-])c(O)c2C(=O)C2=C(O)[C@]3(O)C(=O)C(C(N)=O)=C(O)[C@@H](N(C)C)C3C(O)C21` (stereo partly drawn) [M, [4S-(4alpha,12a-alpha)]-9-[4′-(1′-nitro-4′-methyl)pentyl]-4-(dimethylamino)-1,4,4a,5,5a,6,11,12a-octahydro-3,5,10,12,12a-pentahydroxy-6-methyl-1,11-dioxo-2-naphthacenecarboxamide]: the “Antibacterial activity (minimum inhibitory concentration)” value in the experiment with S. aureus RN4250 was 0.78; in the experiment on E. faecalis ATCC9790, 0.78; in the experiment on E. faecalis pMV158 it was 0.78; in the experiment with S. aureus MRSA5, 0.78; in the experiment with S. aureus ATCC12715 it was 1.56; in the experiment with E. faecalis pAM211, 0.78. For the same compound, the “Antibacterial activity (minimum inhibitory concentration)” value came to 3.12 in the experiment with S. aureus RN450 and 12.5 in the experiment on E. coli D31m4.

Source of the values: patent US20040152674A1, “Pharmaceutically active compounds and methods of use thereof” (Trustees of Tufts College, priority 1998, published 2004).
